Laboratory results as given in patent publication US11931338B2, “Nitrilated psilocybin derivatives and methods of using” (Enveric Biosciences Canada Inc., priority 2020, dated 2024).

Columns and labels:
[1] = biological target: T1, 5-HT1A receptor (Homo sapiens, UniProt P08908); assay: cAMP-Glo assay in CHO-K1/5-HT1A/Gα15 (+5-HT1A) and CHO-K1/Gα15 (−5-HT1A) cells; details: for luminescence (cAMP) in +5HT1A cell culture at various compound concentrations: 5-HT1A activity: fixed (4 μM) forskolin, +5HT1A cells, FIG. 14B-14D; for relative cAMP levels with increasing compound concentration in +5HT1A and −5HT1A cells: constant (4 μM) forskolin, 5-HT1AR cells vs CHO-K1 cells, n=3, FIG. 14F, 14G
T1 sequence (P08908 1-422): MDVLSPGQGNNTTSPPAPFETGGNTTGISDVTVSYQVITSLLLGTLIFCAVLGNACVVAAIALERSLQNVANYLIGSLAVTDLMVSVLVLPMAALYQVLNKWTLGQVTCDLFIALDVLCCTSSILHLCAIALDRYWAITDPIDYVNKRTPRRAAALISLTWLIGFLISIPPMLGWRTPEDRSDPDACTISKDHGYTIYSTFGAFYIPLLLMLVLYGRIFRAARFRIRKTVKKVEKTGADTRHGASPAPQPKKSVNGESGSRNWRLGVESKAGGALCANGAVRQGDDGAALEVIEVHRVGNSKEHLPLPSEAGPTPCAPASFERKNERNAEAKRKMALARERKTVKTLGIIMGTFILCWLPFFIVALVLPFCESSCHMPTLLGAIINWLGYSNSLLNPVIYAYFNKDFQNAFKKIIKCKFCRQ

[2] = biological target: T2, 5-HT2A receptor (Homo sapiens, UniProt P28223); assay: [3H]ketanserin competition binding assay (Scintillation Proximity Assay) with membranes containing 5-HT2A; details: fixed (1 nM) [3H]ketanserin; FIG. 13C, 13D
T2 construct: purchased PerkinElmer ES-313-M400UA
Excerpt: Evaluation of drug binding is an essential step to characterization of all drug-target interactions (Fang 2012, Exp Opin Drug Discov 7:969). The binding affinity of a drug to a target is traditionally viewed as an acceptable surrogate of its in vivo efficacy (Núñez et al., 2012, Drug Disc Today 17: 10). Competition assays, also called displacement or modulation binding assays, are a common approach to measure activity of a ligand at a target receptor (Flanagan 2016, Methods Cell Biol 132: 191). In these assays, standard radioligands acting either as agonists or antagonists are ascribed to specific receptors. […] After incubation, the samples were read on a MicroBeta 2 Microplate Counter (Perkin Elmer). […] Equilibrium binding constants for ketanserin (Kd) were determined from saturation binding curves using the ‘one-site saturation binding analysis’ method of GraphPad PRISM software (Version 9.2.0). […] Ki values were calculated from the competition displacement data using the competitive binding analysis from GraphPad PRISM software. […] Specific binding in counts per minute (cpm) was calculated by subtracting non-specific binding from total binding. Specific binding (pmol/mg) was calculated from pmol of [^3H]ketanserin bound per mg of protein in the assay. The Kd was calculated by fitting the data with the one-site binding model of PRISM software (version 9.2.0).

T2 sequence (P28223 whole entry): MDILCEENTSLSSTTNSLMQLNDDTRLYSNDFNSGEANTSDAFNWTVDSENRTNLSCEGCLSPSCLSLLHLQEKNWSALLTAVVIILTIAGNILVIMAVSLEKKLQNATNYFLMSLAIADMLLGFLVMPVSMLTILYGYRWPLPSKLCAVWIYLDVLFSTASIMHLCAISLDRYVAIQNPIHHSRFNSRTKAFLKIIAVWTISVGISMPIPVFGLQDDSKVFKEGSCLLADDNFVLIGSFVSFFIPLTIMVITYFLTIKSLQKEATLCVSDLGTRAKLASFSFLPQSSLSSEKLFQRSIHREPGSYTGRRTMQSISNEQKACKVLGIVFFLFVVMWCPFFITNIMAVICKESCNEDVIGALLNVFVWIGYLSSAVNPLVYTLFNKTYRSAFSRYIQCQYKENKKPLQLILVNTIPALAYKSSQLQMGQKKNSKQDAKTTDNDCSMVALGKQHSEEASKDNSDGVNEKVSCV

With CN(C)CCc1c[nH]c2ccccc12 [DMT] the “luminescence (cAMP) in +5HT1A cell culture at various compound concentrations: 5-HT1A activity” value (from here on “luminescence (cAMP)”) [1] was 5-HT1A activity.

CC(=O)NCCc1c[nH]c2c(C)cc(C#N)cc12 [compound (VIII), N-[2-(5-cyano-7-methyl-1H-indol-3-yl)ethyl]acetamide] was tested, and the “relative cAMP levels with increasing compound concentration in +5HT1A and −5HT1A cells” value [1] was “agonist of 5HT1A” and the “luminescence (cAMP)” value [1] was 5-HT1A activity.

In the case of CN(C)CCc1c[nH]c2cccc(O)c12 [psilocin], the “competition binding curve against [3H]ketanserin at the 5-HT2A receptor” value [2] was “binding”.

With NCCc1c[nH]c2ccc(O)cc12 [serotonin] the “relative cAMP levels with increasing compound concentration in +5HT1A and −5HT1A cells” value [1] was “agonist of 5HT1A”.

For N[C@@H](Cc1c[nH]c2ccccc12)C(=O)O [tryptophan], the “competition binding curve against [3H]ketanserin at the 5-HT2A receptor” value [2] was “no binding” and the “luminescence (cAMP)” value [1] was “lack of 5-HT1A activity”.
